Test results reported in PubChem BioAssay AID1198 (NMMLSC, 2008).
Calls of active or inactive are those of the source.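 Rule for the calls: active = EC50 under 10 microM for raising side scatter, a sign of cell differentiation; inactive = the rest, including fits that never converged.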

Tests used:
[1] = activators of LNCaP prostate cell differentiation, dose response, flow cytometry, side scatter granularity (AID 1198); conditions: LNCaP side scatter shift, flow cytometry, 4 days; at 30 µM (top of the series)
[2] = test system: LNCaP side scatter shift, flow cytometry, 4 days; experiment: as above

| Structure (SMILES) | side scatter activation [1] | EC50 [2] |
| --- | --- | --- |
| Cc1oc(-c2ccc(Cl)cc2)nc1CN1CCC(C(=O)N2CCN(Cc3ccccc3)CC2)CC1 | 31.1% (inactive) |  |
| Nc1ccc(-n2ccnc2)cc1 | 84.3% (inactive) |  |
| COc1cc2nc(N3CCN(C(=O)C4COc5ccccc5O4)CC3)nc(N)c2cc1OC (stereo not given) |  | 3950 nM |
| CCOC(=O)c1[nH]c(C)c(C(=O)N2CCc3ccccc32)c1C | 1.98% (inactive) |  |
| O=C(c1ccccc1)c1ccc(N2CCNCC2)cc1 | 73% (inactive) |  |
| CCN1CCCC1CNC(=O)c1cc2c(-c3ccc(Cl)cc3)nn(C)c2s1 (stereo not given) | 84.3% (inactive) |  |
| Cn1c(C(=O)NCCCN2CCN(c3cccc(Cl)c3)CC2)cc2c(=O)n(C)c3ccccc3c21 |  | 870 nM |
| Cc1cc(N2CCN(C)CC2)nc2ccc(NC(=O)c3ccc(Br)o3)cc12 |  | 2790 nM |
| CCOc1ccc(-c2cc(C(=O)NCCCN3CCN(CC)CC3)c3ccccc3n2)cc1 |  | 6410 nM |
| COc1ccc(Cc2nc(-c3ccc(-n4cccc4)cc3)no2)cc1OC | 1.98% (inactive) |  |
| Cc1ccccc1-c1nc(CN2CCC(C(=O)NCCCN3CCCC3)CC2)c(C)o1 | 1.98% (inactive) |  |
| CN(C)CCCN1c2ccccc2CCc2ccc(Cl)cc21 | 73% (inactive) |  |
| O=c1cc(-c2ccccc2)[nH]c2ccccc12 | 1.98% (inactive) |  |
| CCN(CC)CC(=O)Nc1ccc(-c2nc3cc(NC(=O)CN(CC)CC)ccc3o2)cc1 |  | 830 nM |
| CCn1c(=O)cc(SCC(=O)NCCN2CCN(Cc3ccccc3)CC2)c2ccccc21 | 73% (inactive) |  |
| CCOC(=O)c1c(C)[nH]c(C(=O)COC(=O)C2CC2C)c1C (stereo not given) | 73% (inactive) |  |
| Cc1cccc(-c2nsc(SCC(=O)Nc3nccs3)n2)c1 |  | 12000 nM (inactive) |
| CCN(CC)CCNC(=O)c1cc2c(-c3ccc(Cl)cc3)nn(C)c2s1 | 31.1% (inactive) |  |
| Cn1nc(-c2ccc(Cl)cc2)c2cc(C(=O)NCCCN3CCCC3)sc21 | 84.3% (inactive) |  |
| CCCS(=O)(=O)N1CCCC(C(=O)NCCCN2CCN(c3ccc(F)cc3)CC2)C1 (stereo not given) | 1.98% (inactive) |  |
| Cc1ccc(Cl)cc1N1CCN(C(=O)c2cc3c(=O)n(C)c4ccccc4c3n2C)CC1 | 0% (inactive) |  |
| COc1ccc2cc3cc(C(=O)Nc4ccccc4N4CCN(C)CC4)oc3nc2c1 | 44.4% (inactive) |  |

| Structure (SMILES) | side scatter activation [1] | EC50 [2] |
| --- | --- | --- |
| CCCc1cc(-c2n[nH]c(C)c2-c2ccc(C(=O)OCC)o2)c(O)cc1O | 1.98% (inactive) |  |
| COc1ccc(-c2cc(C(F)(F)F)nc(N3CCN(Cc4ccccc4)CC3)n2)cc1OC | 44.4% (inactive) |  |
| CCN1CCN(c2cc(C)c3cc(NC(=O)c4ccc(Br)o4)ccc3n2)CC1 | 73% (inactive) |  |
| CN(CCNC(=O)C1CC(=O)N(c2ccc(F)c(Cl)c2)C1)Cc1ccccc1 (stereo not given) | 44.4% (inactive) |  |
| CC(C)N1CCC2(CC1)N=C(c1ccc3c(c1)OCO3)CC(c1cc(Cl)ccc1O)N2 (stereo not given) | 1.98% (inactive) |  |
| CCN(CCNC(=O)C1CCN(Cc2nc(-c3cccc(Cl)c3)oc2C)CC1)c1ccccc1 | 0% (inactive) |  |
| O=S1(=O)C=C(Sc2nc3ccccc3s2)c2ccccc21 | 0% (inactive) |  |
| CCOC(=O)c1c(C)n(C)c2ccc(OCC(O)CNC(CC)CO)cc12 (stereo not given) | 38.5% (inactive) |  |
| COc1ccc(Nc2nc(N)nc(CN3CCC(Cc4ccccc4)CC3)n2)cc1 | 73% (inactive) |  |
| CC(C)(C)c1ccc(C(O)CCCN2CCC(C(O)(c3ccccc3)c3ccccc3)CC2)cc1 (stereo not given) | 0% (inactive) |  |
| Cc1ccc(C)c(N2CCN(CCCNC(=O)Cn3cc4c(n3)CCCCC4)CC2)c1 | 0% (inactive) |  |
| Cc1nc2ncnn2c(C)c1CCC(=O)NCCCN1CCN(c2cccc(Cl)c2)CC1 | 84.3% (inactive) |  |
| Cc1ccc(Nc2cc(=O)n(C3CCCCC3)c(=O)[nH]2)cc1C | 0% (inactive) |  |
| CCOC(=O)c1ccccc1NC(=O)Cn1c(-c2nonc2N)nc2ccccc21 | 44.4% (inactive) |  |
| Cc1ccccc1CS(=O)(=O)CCC(=O)NCCCN1CCN(c2ccccc2F)CC1 | 31.1% (inactive) |  |
| COc1ccc(CCN2CCC(Nc3nc4ccccc4n3Cc3ccc(F)cc3)CC2)cc1 | 40.2% (inactive) |  |
| CCN(CC)CCNC(=O)c1ccc(N2CCCCC2)c(NS(=O)(=O)c2ccc(C)cc2)c1 | 44.4% (inactive) |  |
| CCn1c(=N)n(CC(O)COc2cccc(C)c2)c2ccccc21 (stereo not given) | 0% (inactive) |  |
| Cc1ccccc1-c1nc(CN2CCC(C(=O)NCCCN3CC(C)CC(C)C3)CC2)c(C)o1 (stereo not given) | 31.1% (inactive) |  |
| Cn1c(=O)[nH]c(=O)c2c1nc(Br)n2CCCSc1nc2ccccc2o1 | 1.98% (inactive) |  |
| O=C(Cn1cc2c(n1)CCCC2)NCCCN1CCN(c2ccccc2F)CC1 | 31.1% (inactive) |  |
| CCOc1ccc(NC(=O)COc2nsnc2N2CCCCC2)cc1 | 0% (inactive) |  |

| Structure (SMILES) | side scatter activation [1] | EC50 [2] |
| --- | --- | --- |
| COc1ccccc1N1CCN(Cc2cc(Br)c(O)c3ncccc23)CC1 | 1.98% (inactive) |  |
| Cc1ccccc1-c1nc(CN2CCC(C(=O)NCc3cccnc3)CC2)c(C)o1 | 38.5% (inactive) |  |
| CC1CCCCN1CCNC(=O)c1cc2c(-c3ccccc3F)nn(C)c2s1 (stereo not given) | 84.3% (inactive) |  |
| COc1ccc(-c2noc(CCC(=O)NCCCN3CCC(Cc4ccccc4)CC3)n2)cc1 | 1.98% (inactive) |  |
| O=C(NCCCN1CCN(c2cccc(Cl)c2)CC1)c1cccc(N2CCCC2=O)c1 | 38.5% (inactive) |  |
| COc1ccc(-c2oc3ncn(CCN4CCOCC4)c(=N)c3c2-c2ccc(OC)cc2)cc1 | 44.4% (inactive) |  |
| Cc1cc(C)nc(N2CCC(C(=O)Nc3ccc(Oc4ccccc4)cc3)CC2)n1 | 40.2% (inactive) |  |
| Cc1ccc(CNc2nc3ccccc3n3nnnc23)cc1 | 40.2% (inactive) |  |
| Cc1cc2c(=O)n(CC(=O)N3CCN(c4ccccc4)CC3)cnc2s1 | 84.3% (inactive) |  |
| O=C(CCN1C(=O)COc2ccccc21)NCCCN1CCN(c2ccc(F)cc2)CC1 | 40.2% (inactive) |  |
| CCN(CC)CCCNC(=O)c1cc2c(-c3ccc(Cl)cc3)nn(C)c2s1 | 84.3% (inactive) |  |
| CCc1ccc(-c2nc(CN3CCC(C(=O)NCc4ccc(F)cc4)CC3)c(C)o2)cc1 | 0% (inactive) |  |
| O=C(NCCCN1CCN(c2ccc(F)cc2)CC1)c1cccc(N2CCCC2=O)c1 | 73% (inactive) |  |
| COc1ccc(N2CCN(CCCNC(=O)c3cc4sccc4n3C)CC2)cc1 | 40.2% (inactive) |  |
| COc1ccc(N2CCN(CCCNC(=O)CCCn3c(=O)[nH]c4ccsc4c3=O)CC2)cc1 | 1.98% (inactive) |  |
| Cn1c(=O)cc(SCC(=O)NCCCN2CCN(c3ccccc3F)CC2)c2ccccc21 | 31.1% (inactive) |  |
| Clc1ccc(COC(Cn2ccnc2)c2ccc(Cl)cc2Cl)cc1 (stereo not given) | 0% (inactive) |  |
| CCCOc1ccccc1C1CC(=O)Nc2cc3c(cc21)OCO3 (stereo not given) | 0% (inactive) |  |
| Cn1c(=O)cc(OCC(=O)NCCCN2CCN(c3ccccc3F)CC2)c2ccccc21 | 73% (inactive) |  |
| COc1ccccc1N1CCN(c2nc3ccccc3nc2C(C#N)C(=O)OC(C)C)CC1 (stereo not given) | 44.4% (inactive) |  |
| C[C@H]1CCC/C=C/C2C[C@H](O)CC2[C@H](O)/C=C/C(=O)O1 (stereo not given in full) | 0% (inactive) |  |
